The compounds below were run against T1, GST-Aurora A (Homo sapiens, UniProt O14965) (assay: Aurora A IC50, Caliper LC3000 mobility shift assay). Details: LC3000 method; 15 uM ATP (the KM value); read-out: Aurora Kinase A Activity (IC50).
T1 construct: N-terminal GST fusion with full length Aurora A (1-403 amino acids); purchased Carna Biosciences 05-101
T1 sequence (O14965 1-403): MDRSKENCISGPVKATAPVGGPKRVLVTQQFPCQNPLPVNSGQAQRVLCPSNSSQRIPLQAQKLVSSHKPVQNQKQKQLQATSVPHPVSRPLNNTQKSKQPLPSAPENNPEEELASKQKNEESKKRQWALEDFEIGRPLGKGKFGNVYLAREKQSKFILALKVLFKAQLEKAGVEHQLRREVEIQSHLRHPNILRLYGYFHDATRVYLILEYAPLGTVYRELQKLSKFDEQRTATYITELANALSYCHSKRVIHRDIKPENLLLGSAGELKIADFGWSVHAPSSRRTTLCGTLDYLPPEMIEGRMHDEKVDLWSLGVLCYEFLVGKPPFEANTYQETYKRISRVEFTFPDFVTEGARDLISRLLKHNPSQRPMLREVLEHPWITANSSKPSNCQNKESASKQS
Assay type: biochemical
Procedure, shortened: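 Readout: percent conversion of FITC-LRRASLG (1 uM) to phosphopeptide, resolved electrophoretically on a Caliper LC3000, fitted against inhibitor concentration for IC50. Reaction: N-terminal GST full-length Aurora A, ATP at its KM (15 uM), pH 7.5 HEPES with MgCl2/DTT, 25 C for 90 min.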

SMILES	IC50
O=C(Nc1ccc(Nc2ccnc3[nH]c(=O)c4ccc(F)cc4c23)c(F)c1)c1ccc(F)cc1C(F)(F)F [Compound 420, 4-Fluoro-N-[3-fluoro-4-(9-fluoro-6-oxo-5,6-dihydro-benzo[c][1,8]naphthyridin-1-ylamino)-phenyl]-2-trifluoromethyl-benzamide]	< 0.011 µM
CN1CCN(c2ccc3c(=O)[nH]c4nccc(Nc5ccc(NC(=O)c6ccccc6)cc5)c4c3c2)CC1 [Compound 294, N-(4-(9-(4-methylpiperazin-1-yl)-6-oxo-5,6-dihydrobenzo[c][1,8]naphthyridin-1-ylamino)phenyl)benzamide]	0.011 to 0.1 µM
CN(C)CCNC(=O)c1ccc2c(c1)c(=O)[nH]c1nccc(Nc3ccc(NC(=O)c4ccccc4)cc3)c12 [Compound 270, 1-(4-Benzamidophenylamino)-N-(2-(dimethylamino)ethyl)-6-oxo-5,6-dihydrobenzo[c][1,8]naphthyridine-8-carboxamide]	0.011 to 0.1 µM
O=C(Nc1ccc(Nc2ccnc3[nH]c(=O)c4c(C(=O)NCCCN5CCOCC5)cccc4c23)cc1)c1ccccc1 [Compound 437, 1-[4-Benzoylamino-phenylamino)-6-oxo-5,6-dihydro-benzo[c][1,8]naphthyridin-7-carboxylic acid 3-morpholin-4-yl-propyl amide]	< 0.011 µM
O=C(Nc1ccccc1)c1ccc(Nc2ccnc3[nH]c(=O)c4ccccc4c23)cc1 [Compound 317, 4-(6-Oxo-5,6-dihydrobenzo[c][1,8]naphthyridin-1-ylamino)-N-phenylbenzamide]	> 0.1 µM
O=C(Nc1ccc(Nc2ccnc3[nH]c(=O)c4ccc(C(F)(F)F)cc4c23)cc1)c1ccccc1 [Compound 403, N-[4-(9-Trifluoromethyl-6-oxo-5,6-dihydro-benzo[c][1,8]naphthyridin-1-ylamino)-phenyl]-benzamide]	< 0.011 µM
O=C(c1cc(F)cc(F)c1)N1CCC(CNc2ccnc3[nH]c(=O)c4ccccc4c23)C1 (stereo not drawn) [Compound 362, 1-((1-(3,5-Difluorobenzoyl)pyrrolidin-3-yl)methylamino)benzo[c][1,8]naphthyridin-6(5H)-one]	> 0.1 µM
CN1CCN(C(=O)c2ccc3c(=O)[nH]c4nccc(Nc5ccc(NC(=O)c6ccccc6)cc5)c4c3c2)CC1 [Compound 290, N-(4-(9-(4-Methylpiperazine-1-carbonyl)-6-oxo-5,6-dihydrobenzo[c][1,8]naphthyridin-1-ylamino)phenyl)benzamide]	0.011 to 0.1 µM
O=C(Nc1ccc(Nc2ccnc3[nH]c(=O)c4ccccc4c23)cc1)c1ccc(Cl)cc1 [Compound 389, 4-Chloro-N-[4-(6-oxo-5,6-dihydro-benzo[c][1,8]naphthyridin-1-ylamino)-phenyl]-benzamide]	< 0.011 µM
CN(C)CCNC(=O)c1ccc2c(=O)[nH]c3nccc(Nc4ccc(NC(=O)c5ccc(F)c(F)c5)cc4)c3c2c1 [Compound 298, 1-(4-(3,4-Difluorobenzamido)phenylamino)-N-(2-(dimethylamino)ethyl)-6-oxo-5,6-dihydrobenzo[c][1,8]naphthyridine-9-carboxamide]	< 0.011 µM
O=C(Cc1ccccc1)N1CCC(Nc2ccnc3[nH]c(=O)c4ccccc4c23)C1 (stereo not drawn) [Compound 369, 1-(1-(2-Phenylacetyl)pyrrolidin-3-ylamino)benzo[c][1,8]naphthyridin-6(5H)-one]	> 0.1 µM
O=c1[nH]c2nccc(Nc3ccc4c(cnn4Cc4ccccc4)c3)c2c2ccccc12 [Compound 333, 1-(1-Benzyl-1H-indazol-5-ylamino)benzo[c][1,8]naphthyridin-6(5H)-one]	0.011 to 0.1 µM
O=C(Nc1ccc(Nc2ccnc3[nH]c(=O)c4ccccc4c23)cc1)c1cc(C(F)(F)F)cc(C(F)(F)F)c1 [Compound 400, N-[4-(6-Oxo-5,6-dihydro-benzo[c][1,8]naphthyridin-1-ylamino)-phenyl]-3,5-bis-trifluoromethyl-benzamide]	0.011 to 0.1 µM
O=C(Nc1ccc(Nc2ccnc3[nH]c(=O)c4ccc(F)cc4c23)cc1)c1ccc(F)cc1 [Compound 419, 4-Fluoro-N-[4-(9-fluoro-6-oxo-5,6-dihydro-benzo[c][1,8]naphthyridin-1-ylamino)-phenyl]-benzamide]	< 0.011 µM
CCOC(=O)c1cccc2c1c(=O)[nH]c1nccc(Nc3ccc(NC(=O)c4ccccc4)cc3)c12 [Compound 423, 1-[4-Benzoylamino-phenylamino)-6-oxo-5,6-dihydro-benzo[c][1,8]naphthyridin-7-carboxylic acid ethyl ester]	< 0.011 µM
O=C(CN1CC(Nc2ccnc3[nH]c(=O)c4ccccc4c23)C1)Nc1ccccc1 [Compound 370, 2-(3-(6-Oxo-5,6-dihydrobenzo[c][1,8]naphthyridin-1-ylamino)azetidin-1-yl)-N-phenylacetamide]	> 0.1 µM
CN(C)CCNC(=O)c1ccc2c(=O)[nH]c3nccc(Nc4ccc(NC(=O)c5ccc(F)cc5C(F)(F)F)cc4)c3c2c1 [Compound 297, N-(2-(Dimethylamino)ethyl)-1-(4-(4-fluoro-2-(trifluoromethyl)benzamido)phenylamino)-6-oxo-5,6-dihydrobenzo[c][1,8]naphthyridine-9-carboxamide]	< 0.011 µM
Cn1ccc(C(=O)Nc2ccc(Nc3ccnc4[nH]c(=O)c5ccccc5c34)cc2)n1 [Compound 345, 1-methyl-N-(4-(6-oxo-5,6-dihydrobenzo[c][1,8]naphthyridin-1-ylamino)phenyl)-1H-pyrazole-3-carboxamide]	0.011 to 0.1 µM
O=C(Nc1ccc(Nc2ccnc3[nH]c(=O)c4ccccc4c23)cc1)c1ccc(F)c(F)c1 [Compound 384, 3,4-Difluoro-N-[4-(6-oxo-5,6-dihydro-benzo[c][1,8]naphthyridin-1-ylamino)-phenyl]-benzamide]	< 0.011 µM
O=C(Nc1ccc(Nc2ccnc3[nH]c(=O)c4ccccc4c23)cc1)c1cccc(C(F)(F)F)c1F [Compound 387, 2-Fluoro-N-[4-(6-oxo-5,6-dihydro-benzo[c][1,8]naphthyridin-1-ylamino)-phenyl]-3-trifluoromethyl-benzamide]	< 0.011 µM
O=C(Nc1ccc(Nc2ccnc3[nH]c(=O)c4ccccc4c23)cc1)c1cc(F)cc(F)c1 [Compound 385, 3,5-Difluoro-N-[4-(6-oxo-5,6-dihydro-benzo[c][1,8]naphthyridin-1-ylamino)-phenyl]-benzamide]	< 0.011 µM
O=C(CN1CCC(Nc2ccnc3[nH]c(=O)c4ccccc4c23)CC1)Nc1ccc(F)cc1 [Compound 374, N-(4-Fluorophenyl)-2-(4-(6-oxo-5,6-dihydrobenzo[c][1,8]naphthyridin-1-ylamino)piperidin-1-yl)acetamide]	0.011 to 0.1 µM

Next, values leading:

IC50	SMILES
< 0.011 µM	O=C(Nc1ccc(Nc2ccnc3[nH]c(=O)c4c(C(=O)NCCO)cccc4c23)cc1)c1ccc(F)cc1C(F)(F)F [Compound 444, 1-[4-(4-Fluoro-2-trifluoromethyl-benzoylamino)-phenylamino)-6-oxo-5,6-dihydro-benzo[c][1,8]naphthyridin-7-carboxylic acid 2-hydroxy ethyl amide]
> 0.1 µM	O=c1[nH]c2ncccc2c2cc(NCc3cccc4ccccc34)ccc12 [Example 45, 9-[(Naphthalen-1-ylmethyl)-amino]-5H-benzo[c][1,8]naphthyridin-6-one]
> 0.1 µM	O=C(CN1CCC(Nc2ccnc3[nH]c(=O)c4ccccc4c23)CC1)Nc1ccccn1 [Compound 483, 2-(4-(6-Oxo-5,6-dihydrobenzo[c][1,8]naphthyridin-1-ylamino)piperidin-1-yl)-N-(pyridin-2-yl)acetamide]
> 0.1 µM	Cc1cccc(CNc2ccc3c(=O)[nH]c4ncccc4c3c2)c1 [Example 47, 9-(3-Methyl-benzylamino)-5H-benzo[c][1,8]naphthyridin-6-one]
> 0.1 µM	O=c1[nH]c2ncccc2c2cc(NCc3ccc(F)cc3C(F)(F)F)ccc12 [Compound 464, 9-(4-Fluoro-2-(trifluoromethyl)benzylamino)benzo[c][1,8]naphthyridin-6(5H)-one]
> 0.1 µM	O=c1[nH]c2ncccc2c2cc(NCc3cc(C(F)(F)F)ccc3C(F)(F)F)ccc12 [Compound 468, 9-(2,5-Bis(trifluoromethyl)benzylamino)benzo[c][1,8]naphthyridin-6(5H)-one]
> 0.1 µM	O=c1[nH]c2ncccc2c2cc(NCc3ccccc3[N+](=O)[O-])ccc12 [Compound 466, 9-(2-Nitrobenzylamino)benzo[c][1,8]naphthyridin-6(5H)-one]
< 0.011 µM	O=C(Nc1ccc(Nc2ccnc3[nH]c(=O)c4ccccc4c23)cc1)c1cccnc1C(F)(F)F [Compound 498, N-(4-(6-Oxo-5,6-dihydrobenzo[c][1,8]naphthyridin-1-ylamino)phenyl)-2-(trifluoromethyl)nicotinamide]
< 0.011 µM	CN(C)CCNC(=O)c1cccc2c1c(=O)[nH]c1nccc(Nc3ccc(NC(=O)c4ccc(F)cc4C(F)(F)F)cc3)c12 [Compound 440, 1-[4-(4-Fluoro-2-trifluoromethyl-benzoylamino)-phenylamino)-6-oxo-5,6-dihydro-benzo[c][1,8]naphthyridin-7-carboxylic acid 2-dimethylamino-ethyl amide]
< 0.011 µM	CN(C)CCCNC(=O)c1cccc2c1c(=O)[nH]c1nccc(Nc3ccc(NC(=O)c4ccc(F)cc4C(F)(F)F)cc3)c12 [Compound 441]
> 0.1 µM	CCN(Cc1ccccc1)c1ccc2c(=O)[nH]c3ncccc3c2c1 [Compound 449, 9-(Benzyl(ethyl)amino)benzo[c][1,8]naphthyridin-6(5H)-one]

— US8735584B2 (Merck Patent GmbH, priority 2008, dated 2014)
